Results on six compounds are retold here after US20030162972A1, “Pyridyl alkane acid amides as cytostatics and immunosupressives” (Klinge Pharma GmbH, priority 1996, published 2003).

One series has as its system HepG2 cells. The series is described as follows: Growth inhibition of HepG2 cells, six days of substance incubation, sulforhodamin-B protein determination. It counts as cell-based. Particulars: Homo sapiens, 144 h. The protocol:
(§1) HepG2 cells plated at a density of 20,000 cells/ml in 12-well plastic dishes. Cultivation occured in Richters IMEM-ZO nutrient medium with 5% fetal calf serum (FCS) in a tissue culture incubator with a gas mixture of 5% CO2 and 95% air at a temperature of 37° C. One day after planting, the culture medium was aspirated from the cells and replaced by fresh medium which contained the respective concentrations of the test substances. For the individual concentrations and the controls without test substances, three-fold batches were done for each. Three days after the beginning of treatment, the medium was again renewed with the test compounds. After six days of substance incubation, the test was ended and the protein amount in the individual wells was determined with the sulforhodamin-B-method (according to P. Skehan et al: New Colorimetric Cytotoxicity Assay for Anticancer-Drug Screening. J. Natl. Cancer Inst. 82:1107-1112, 1990). The IC50-values (defined as that concentration in which the cell growth was inhibited by 50%) was taken from the dose-response curves and given as a comparative measurement for the activity of the test compounds.

Series [1] relates to various human tumor cells. The series is described as follows: In vitro activity of compound Nr. 54 on various human tumor cells. Format: cell-based. As for the experimental part: as §1
The compounds of formula (I) and their salts permit a therapeutic use in malignant illnesses of humans and animals through their excellent inhibition of the growth of tumor cells. The anti-neoplastic activity of the described substances can be used for prophylactic, adjunct, palliative, and curative treatment of solid tumors, leukemic illnesses and lymphomas as well as for decreasing or preventing metastasis formation in humans and animals. The therapeutic use is possible in the following illnesses for example: gynecological tumors, such as of the uterus or the vagina, ovarian carcinomas, testicle tumors, prostate carcinomas, skin cancer, kidney cancer, bladder tumors, esophagus carcinomas, stomach cancer, rectal carcinomas, pancreas carcinomas, thyroid cancer, adrenal tumors, leukemia and lymphomas, such as Hodgkin's disease, tumor illnesses of the CNS, soft-tissue sarcomas, bone sarcomas, benign and malignant mesotheliomas, but especially intestine cancer, liver cancer, breast cancer, bronchial and lung carcinomas, melanomas, acute and chronic leukemias. Thereby, benign papillomatosis tumors are also considered for therapy. The broad activity of the new compounds was tested in vitro on various human tumor cells Thereby, the following IC50 values were obtained for compound Nr.

Series [2] has as its system freshly isolated lymphocytes. The series is described as follows: Immunosuppressing activity: vitality of freshly isolated spleen lymphocytes after 2 days, flow-through cytometry (propidium iodide / 3,3'-dihexyloxacarbocyanin iodide). Format: cell-based. Particulars: Lymphocyte, 48 h; Swiss mouse spleen lymphocytes, vital cells after 2 days, flow-through cytometer. An excerpt:
Many anti-tumor agents have not only a cytotoxic effect on tumor cells, but also on the blood cell system. This leads to a weakening of the immune defence, which can, in turn, be specifically employed to suppress the rejection reaction after an organ transplantation for example. Therefore, a use of the main compounds, optionally in combination with other compounds effective for these indications is suitable in diseases such as psoriasis or autoimmune diseases. In order to test the possibility for a therapeutic use in illnesses of this type, the substance activity was tested on freshly isolated lymphocytes as follows: […]
The cells were plated at a density of ca. 500,000 cells/well/ml in a 12-well plate, 1 ml doubly concentrated test substance solution was pipetted per well and this was subsequently incubated in a tissue culture incubator at 37° C. and 5% CO2. […] Subsequently, 10,000 cells per each sample were measured on a flow-through cytometer and the percentage amount of vital cells in the population was determined. By means of the dose-response curves, IC50-values were calculated which were also employed in the following Tables for the characterization of the individual substances: […]

Turning to `O=C(CCc1cccnc1)NCCCCC1CCN(C(c2ccccc2)c2ccccc2)CC1` [Substance 54, N-[4-(1-diphenylmethyl-piperidin-4-yl)-butyl]-3-(pyridin-3-yl)-propionamide], the IC50 in the series on HepG2 cells came to 20 nM; in series [1] (MCF7, cell line MCF-7, ER-positive mammacarcinoma), 80 nM; in series [1] (cell line HT-29, colon carcenoma), 80 nM; in series [1] (cell line HepG2, hepatocellular carcinoma), 20 nM; in series [1] (cell line Namalwa, Burkitt's lymphoma) it was 50 nM; in series [1] (cell line Saos-2, osteosarcoma), 20 nM. Moreover, the IC50 in series [1] (cell line THP-1, monocytic leukemia) is 30 nM; in series [2], 3 nM.
`O=C(CCc1cccnc1)NCCCCNC(=O)C1CCCN(C(c2ccccc2)c2ccccc2)C1` (stereo not drawn) [Substance 106, N-[4-(1-diphenylmethyl-piperidin-3-yl-carbonylamino)-butyl]-3-(pyridin-3-yl)-propionamide] had a melting point of 159 to 161 °C.
Turning to `O=C(CCc1cccnc1)NCCCCC1CCN(C(=O)c2ccccc2)CC1` [Substance 162, N-[4-(1-benzoylpiperidin-4-yl)-butyl]-3-(pyridin-3-yl)-propionamide], the melting point fell in the range of 72 to 74 °C.
As to `O=C(COc1cccnc1)NCCCCC1CCN(C(c2ccccc2)c2ccccc2)CC1` [Substance 84, N-[4-(1-diphenylmethyl-piperidin-4-yl)-butyl]-2-(pyridin-3-yloxy)-acetamide], the melting point was 103 to 105 °C. The IC50 with HepG2 cells stood at 80 nM.
The compound `O=C(CCc1cccnc1)NCCCCCC1CCN(C(c2ccccc2)c2ccccc2)CC1` [Substance 101, N-[5-(1-diphenylmethyl-piperidin-4-yl)-pentyl]-3-(pyridin-3-yl)-propionamide] came in with a melting point of 112 to 114 °C. The same compound showed an IC50 in the series with HepG2 cells of 30 nM.
Compound `CCN(CCCCC1CCN(C(c2ccccc2)c2ccccc2)CC1)C(=O)CCc1cccnc1` [Substance 68, N-[4-(1-diphenylmethyl-piperidin-4-yl)-butyl]-N-ethyl-3-(pyridin-3-yl)-propionamide] registered a melting point of 72 to 74 °C.

Broadly, the IC50 is the midpoint of a concentration-inhibition curve. Broadly, the melting point is the temperature of the solid-liquid transition.
